# Like-named read-outs stand apart in the source and are kept apart here.
# What was measured:
# Leishmania B = molecular target: T1, Leishmania B (UniProt P90627); test: Cysteine protease inhibition, progress curve method, leishmania B; assay type: biochemical, Leishmania spp; settings: read-out: Leishmania B Ki nM; 10 uM Cbz-Phe-Arg-AMC, 100 mM Na acetate pH 5.5, 5 mM cysteine
# T1 sequence (P90627 1-340): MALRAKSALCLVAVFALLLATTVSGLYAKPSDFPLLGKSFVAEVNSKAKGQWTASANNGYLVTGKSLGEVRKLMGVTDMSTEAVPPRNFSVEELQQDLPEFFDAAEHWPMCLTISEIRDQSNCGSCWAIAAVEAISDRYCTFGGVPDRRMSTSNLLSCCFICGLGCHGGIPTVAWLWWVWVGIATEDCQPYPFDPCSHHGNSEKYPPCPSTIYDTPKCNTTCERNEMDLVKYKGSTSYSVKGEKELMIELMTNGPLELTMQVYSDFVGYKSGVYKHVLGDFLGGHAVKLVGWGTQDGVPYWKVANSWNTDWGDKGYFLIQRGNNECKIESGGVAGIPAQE
# Protocol: (§1) Standard assay conditions for the determination of kinetic constants used 10 uM fluorogenic peptide substrate, Cbz-Phe-Arg-AMC for the cysteine proteases from Leishmania spp and Schistosoma Mansoni, Cbz-Leu-Arg-AMC for the cysteine proteases from Plasmodium falciparum and Trypanosoma brucei rhodesiensi, and Ac-Lys-Glu-Lys-Leu-Arg-AMC (4 uM final substrate concentration) for the cysteine protease from Trypoanosoma cruzi, and were determined in 100 mM Na acetate at pH 5.5 containing 5 mM cysteine. Stock substrate solutions were prepared at concentrations of […] in DMSO with 10 uM (4 uM for Ac-Lys-Glu-Lys-Leu-Arg-AMC) final substrate concentration in the assays. The final DMSO concentration was 2% and the final volume was 100 uL. All assays were conducted at ambient temperature. Product progress curves were generated over 20 to 30 minutes following formation of AMC product.
# (§2) Potential inhibitors were evaluated using the progress curve method. Assays were carried out in the presence of variable concentrations of test compound. Reactions were initiated by addition of enzyme to buffered solutions of inhibitor and substrate. Data analysis was conducted according to one of two procedures depending on the appearance of the progress curves in the presence of inhibitors. For those compounds whose progress curves were linear, apparent inhibition constants (Ki,app) were calculated according to equation 1 (Brandt et al., Biochemitsry, 1989, 28, 140):
# (§3) v=VmA/[Ka(1+I/Ki,app)+A] (1)
# (§4) Where v is the velocity of the reaction with maximal velocity Vm, A is the concentration of substrate with Michaelis constant of Ka, and I is the concentration of inhibitor.
# (§5) [AMC]=vsst+(v0−vss)[1−exp (−kobst)]/kobs (2)
# (§6) Where [AMC] is the concentration of product formed over time t, v0 is the initial reaction velocity and vss is the final steady state rate. Values for kobs were then analyzed as a linear function of inhibitor concentration to generate an apparent second order rate constant (kobs/inhibitor concentration or kobs/[I]) describing the time-dependent inhibition. A complete discussion of this kinetic treatment has been fully described (Morrison et al., Adv. Enzymol. Relat. Areas Mol. Biol., 1988, 61, 201).
# (§7) Exemplary inhibition data for the compounds used in the present method collected in accordance with the above-described procedure are listed in Table I.
# Schisto B 1 = Schisto B 1 (Schistosoma mansoni, UniProt P25792); test: Cysteine protease inhibition, progress curve method, schistosoma B 1; assay type: biochemical
# Protocol: as §1, §2, §3, §4, §5, §6, §7
# Schisto B 2 = Schisto B 2 (Schistosoma mansoni, UniProt Q95PM1); test: Cysteine protease inhibition, progress curve method, schistosoma B 2; assay type: biochemical; settings: 10 uM Cbz-Phe-Arg-AMC, 100 mM Na acetate pH 5.5, 5 mM cysteine
# Protocol: as §1, §2, §3, §4, §5, §6, §7
# Rhodazain = Rhodazain (Trypanosoma brucei rhodesiense, UniProt Q95PM0); test: Cysteine protease inhibition, progress curve method, rhodazain; assay type: biochemical, Trypanosoma brucei rhodesiensi; settings: Rhodazain Ki (nM), 10 uM Cbz-Leu-Arg-AMC, 100 mM Na acetate pH 5.5, 5 mM cysteine
# Cruzain = Cruzain (Trypanosoma cruzi, UniProt P25779); test: Cysteine protease inhibition, progress curve method, cruzain; assay type: biochemical; settings: 4 uM Ac-Lys-Glu-Lys-Leu-Arg-AMC, 100 mM Na acetate pH 5.5, 5 mM cysteine; read-out: Cruzain Ki
# Method in brief: (§8)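 Kinetic constants from AMC-release progress curves over 20–30 min at ambient temperature in 100 mM Na acetate pH 5.5, 5 mM cysteine, 2% DMSO; enzyme added last to inhibitor plus substrate. Substrates: 10 uM Cbz-Phe-Arg-AMC (Leishmania, Schistosoma), 10 uM Cbz-Leu-Arg-AMC (falcipain), 4 uM Ac-Lys-Glu-Lys-Leu-Arg-AMC (cruzain). Ki,app from linear curves; time-dependent inhibition as kobs/[I].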
# Falcipain 2 = Falcipain 2 (Plasmodium falciparum, UniProt Q8I6U4); test: Cysteine protease inhibition, progress curve method, falcipain; assay type: biochemical; settings: 10 uM Cbz-Leu-Arg-AMC, 100 mM Na acetate pH 5.5, 5 mM cysteine
# Method in brief: as §8
# [1] = 10 uM Cbz-Phe-Arg-AMC, 100 mM Na acetate pH 5.5, 5 mM cysteine, read-out: Schisto B 1 Ki
# Sequence of Rhodazain (Q95PM0 entry or part of it): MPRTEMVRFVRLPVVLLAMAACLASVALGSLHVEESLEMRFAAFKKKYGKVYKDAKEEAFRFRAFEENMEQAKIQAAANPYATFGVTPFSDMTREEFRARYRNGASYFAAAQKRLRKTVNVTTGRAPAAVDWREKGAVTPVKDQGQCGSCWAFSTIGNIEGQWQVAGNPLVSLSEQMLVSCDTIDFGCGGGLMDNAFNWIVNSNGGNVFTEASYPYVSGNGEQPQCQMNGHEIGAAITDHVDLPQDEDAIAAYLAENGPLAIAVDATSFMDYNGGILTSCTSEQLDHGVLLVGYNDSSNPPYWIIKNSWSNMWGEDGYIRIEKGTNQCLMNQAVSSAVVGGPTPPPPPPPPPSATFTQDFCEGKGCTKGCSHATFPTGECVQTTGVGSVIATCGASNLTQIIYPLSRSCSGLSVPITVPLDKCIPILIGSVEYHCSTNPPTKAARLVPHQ
# Sequence of Schisto B 1 (P25792 89-340): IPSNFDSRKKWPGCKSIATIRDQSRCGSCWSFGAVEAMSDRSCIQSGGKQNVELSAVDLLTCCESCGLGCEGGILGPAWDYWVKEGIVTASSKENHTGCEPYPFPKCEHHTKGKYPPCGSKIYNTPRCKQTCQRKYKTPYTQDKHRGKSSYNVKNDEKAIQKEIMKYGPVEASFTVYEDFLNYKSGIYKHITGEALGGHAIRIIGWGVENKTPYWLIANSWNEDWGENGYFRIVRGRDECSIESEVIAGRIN
# Sequence of Schisto B 2 (Q95PM1 entry or part of it): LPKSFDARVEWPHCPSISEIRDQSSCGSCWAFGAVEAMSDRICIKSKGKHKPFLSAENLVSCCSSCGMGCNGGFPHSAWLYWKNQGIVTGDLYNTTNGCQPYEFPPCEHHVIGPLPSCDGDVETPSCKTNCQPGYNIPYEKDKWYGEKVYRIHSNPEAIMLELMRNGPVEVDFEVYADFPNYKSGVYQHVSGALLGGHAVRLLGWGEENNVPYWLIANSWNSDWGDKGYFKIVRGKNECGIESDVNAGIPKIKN
# Sequence of Cruzain (P25779 123-337): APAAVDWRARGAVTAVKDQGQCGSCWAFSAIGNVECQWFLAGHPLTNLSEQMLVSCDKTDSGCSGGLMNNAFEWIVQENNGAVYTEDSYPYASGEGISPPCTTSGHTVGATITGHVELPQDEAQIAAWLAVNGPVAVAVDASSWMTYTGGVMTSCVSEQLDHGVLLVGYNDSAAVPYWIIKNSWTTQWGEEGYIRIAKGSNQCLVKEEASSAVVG
# Sequence of Falcipain 2 (Q8I6U4 244-484): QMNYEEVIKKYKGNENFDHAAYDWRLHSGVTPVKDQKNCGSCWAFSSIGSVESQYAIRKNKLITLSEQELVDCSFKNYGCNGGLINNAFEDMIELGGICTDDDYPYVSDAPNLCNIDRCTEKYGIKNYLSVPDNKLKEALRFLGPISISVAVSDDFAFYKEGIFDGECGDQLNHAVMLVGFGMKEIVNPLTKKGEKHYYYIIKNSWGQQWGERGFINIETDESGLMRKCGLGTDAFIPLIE
Structure (SMILES),Ki (Leishmania B) [nM],Ki (Schisto B 1; [1]) [nM],Ki (Schisto B 2) [nM],Ki (Rhodazain) [nM],Ki (Cruzain) [nM],Ki (Falcipain 2) [nM],Ki (Schisto B 1) [nM]
"COc1ccc2oc(C(=O)N[C@@H](CC(C)C)C(=O)N[C@H]3CCCN(S(=O)(=O)c4ccc(Cl)cc4)CC3=O)cc2c1 [Example 132, 5-Methoxy-benzofuran-2-carboxylic acid {(S)-1-[1-(4-chloro-benzenesulfonyl)-3-oxo-azepan-4-ylcarbamoyl]-3-methyl-butyl}-amide]",8.1,150,880,–,–,–,–
"O=C(N[C@@H](Cc1ccccc1)C(=O)NC1CCCN(S(=O)(=O)c2ccccn2)CC1=O)c1cccc2cccnc12 (single isomer, unassigned) [Example 189]",3.9,–,–,3.1,–,–,–
"COc1ccc2oc(C(=O)N[C@@H](CC(C)C)C(=O)N[C@H]3CCCN(S(=O)(=O)c4cccc(Cl)c4)CC3=O)cc2c1 [Example 89, 5-Methoxy-benzofuran-2-carboxylic acid-{(S)-1-[1-(3-chloro-benzenesulfonyl)-3-oxo-azepan-4-ylcarbamoyl]-3-methyl-butyl}-amide]",24,34,130,–,11,–,–
"O=C(N[C@@H](Cc1ccc2ccccc2c1)C(=O)NC1CCCN(S(=O)(=O)c2ccccn2)CC1=O)c1cccc2cccnc12 (stereo partly drawn) [Example 174, Quinoline-8-carboxylic acid {(S)-2-naphthalen-2-yl-1-[3-oxo-1-(pyridine-2-sulfonyl)-azepan-4-ylcarbamoyl)-ethyl]-amide]",1.7,27,8.3,4.7,–,–,–
"O=C(NC(Cc1ccc2ccccc2c1)C(=O)NC1CCCN(S(=O)(=O)c2ccccn2)CC1=O)c1cccc2cccnc12 [Example 187, Quinoline-8-carboxylic acid {(S)-2-naphthalen-2-yl-1-[3-oxo-1-(pyridine-2-sulfonyl)-azepan-4-ylcarbamoyl]-ethyl}-amide]",2.1,8.4,–,2.5,6.8,–,–
"CC(C)C[C@H](NC(=O)c1cc2ccccc2s1)C(=O)N[C@@H]1CCCN(S(=O)(=O)c2ccc(F)cc2)CC1=O [Example 108, Benzo[b]thiophene-2-carboxylic acid-{(S)-1-[1-(4-fluoro-benzenesulfonyl)-3-oxo-azepan-4-ylcarbamoyl]-3-methyl-butyl}-amide]",9.4,34,110,–,20,–,–
"Cc1c(C(=O)N[C@@H](CC(C)C)C(=O)N[C@H]2CCCN(S(=O)(=O)c3cccc(Cl)c3)CC2=O)oc2ccccc12 [Example 90, 3-Methyl-benzofuran-2-carboxylic acid-{(S)-1-[1-(3-chloro-benzenesulfonyl)-3-oxo-azepan-4-ylcarbamoyl]-3-methyl-butyl}-amide]",3.3,48,71,–,–,–,–
"CC(C)C[C@H](NC(=O)c1cc2sccc2s1)C(=O)N[C@H]1C[C@H](C)CN(S(=O)(=O)c2ccccn2)CC1=O [Example 200, Thieno[3,2-]thiophene-2-carboxylic acid {(S)-3-methyl-1-[6-methyl-3-oxo-1-(pyridine-2-sulfonyl)-azepan-4-ylcarbamoyl]-butyl}-amide]",4.7,63,65,2.3,2.7,4.1,–
"CC(C)C[C@H](NC(=O)c1cc2ccccc2o1)C(=O)NC1CCCN(Cc2ccc3ccccc3n2)CC1=O (stereo partly drawn) [Example 212, Benzofuran-2-carboxylic acid [(S)-3-methyl-1-[3-oxo-1-quinolin-2-ylmethyl-azepan-4-ylcarbamoyl]-butyl}-amide]",1.7,–,–,–,7.7,–,–
"O=C(N[C@@H](Cc1ccc2ccccc2c1)C(=O)NC1CCCN(S(=O)(=O)c2ccccn2)CC1=O)c1cccc2ccccc12 (single isomer, unassigned) [Example 188]",2.8,24,22,4,–,–,–
"CC(C)C[C@H](NC(=O)c1cc2ccccc2o1)C(=O)N[C@H]1CCCN(S(=O)(=O)c2ccc(Cl)cc2)CC1=O [Example 131, Benzofuran-2-carboxylic acid {(S)-1-[1-(4-chloro-benzenesulfonyl)-3-oxo-azepan-4-ylcarbamoyl]-3-methyl-butyl}-amide]",11,75,300,–,–,–,–
"CC(C)C[C@H](NC(=O)c1cc2ccccc2s1)C(=O)N[C@H]1CCCN(S(=O)(=O)c2ccc(Cl)cc2)CC1=O [Example 135, Benzo[b]thiophene-2-carboxylic acid-{(S)-1-[1-(4-chloro-benzenesulfonyl)-3-oxo-azepan-4-ylcarbamoyl]-3-methyl-butyl}-amide]",8,75,270,–,–,–,–
"CC(C)CC(NC(=O)c1cc2ccccc2o1)C(=O)NC1CC[C@@H](C)N(S(=O)(=O)c2ccccn2)CC1=O (single isomer, unassigned) [Example 182]",4.3,61,45,1.1,–,–,–
"O=C(N[C@@H](Cc1ccc2ccccc2c1)C(=O)NC1CCCN(S(=O)(=O)c2ccccn2)CC1=O)c1cc2ccccc2o1 (stereo partly drawn) [Example 159, Benzofuran-2-carboxylic acid {(S)-2-naphthalen-2-yl-1-[3-oxo-1-(pyridine-2-sulfonyl)-azepan-4-ylcarbamoyl)-ethyl]-amide]",1.4,–,–,3.4,–,–,47
"O=C(N[C@@H](Cc1ccc2ccccc2c1)C(=O)NC1CCCN(S(=O)(=O)c2ccccn2)CC1=O)c1cccc2ccccc12 (stereo partly drawn) [Example 175, Naphthalene-1-carboxylic acid {(S)-2-naphthalen-2-yl-1-[3-oxo-1-(pyridine-2-sulfonyl)-azepan-4-ylcarbamoyl)-ethyl]-amide]",1.7,37,21,5.6,–,–,–
"CC(C)CC(NC(=O)c1cc2ccccc2s1)C(=O)NC1CCCN(S(=O)(=O)c2ccccn2)CC1=O (stereo in doubt) [Example 87, Benzo[b]thiophene-2-carboxylic acid {(S)-3-methyl-1-[3-oxo-1-(pyridine-2-sulfonyl)-azepan-4-ylcarbamoyl]-butyl}amide]",–,44,260,1.9,3,42,–
"Cc1c(C(=O)N[C@@H](CC(C)C)C(=O)NC2CCCN(Cc3ccc4ccccc4n3)CC2=O)oc2ccccc12 (stereo partly drawn) [Example 213, 3-Methyl-benzofuran-2-carboxylic acid [(S)-3-methyl-1-[3-oxo-1-quinolin-2-ylmethyl-azepan-4-ylcarbamoyl]-butyl}-amide]",0.77,–,–,–,7.1,–,–
"CC(C)C[C@H](NC(=O)c1cc2ccccc2s1)C(=O)NC1CCCN(Cc2ccc3ccccc3n2)CC1=O (stereo partly drawn) [Example 214, Benzo[b]thiophene-2-carboxylic acid {(S)-3-methyl-1-[3-oxo-1-quinolin-2-ylmethyl-azepan-4-ylcarbamoyl]-butyl}-amide]",1,–,–,–,7.4,–,–

# Reference: US20030044399A1, “Method of treatment” (SmithKline Beecham Corporation, priority 1998, published 2003)
